Assay results from US9718821B2, “Pyridopyrimidinone inhibitors of kinases” (AbbVie Inc., priority 2012, dated 2017).

Biological target: T1, GST-tagged-Wee1 kinase (Homo sapiens, UniProt P30291)
T1 construct: purchased Carnabio 05-177
Test: Wee1 time-resolved fluorescence equilibrium binding assay (displacement of Oregon Green-labeled ATP-competitive kinase probe)
Conditions: enzyme binding data; GST-tagged-Wee1 kinase 2 nM, fluorescent probe 300 nM, inhibitor 0.003 to 10 micromolar, 1 hour incubation; read-out: Wee-1 binding (Ki nM)
Procedure: Wee1 kinase was assayed using a time-resolved fluorescence equilibrium binding assay monitoring displacement of a rapidly reversible Oregon Green-labeled ATP-competitive kinase probe (N-(2-(2-(2-(4-(4-(5-chloro-4-(2-(1-hydroxycyclobutyl)thiazol-5-yl)-1H-pyrrolo[2,3-b]pyridin-2-yl)phenyl)piperazin-1-yl)ethoxy)ethoxy)ethyl)-2′,7′-difluoro-3′,6′-dihydroxy-3-oxo-3H-spiro[isobenzofuran-1,9′-xanthene]-5-carboxamide) by competitive Wee1 inhibitors.
Table 1 depicts enzyme binding data (Ki)for exemplary compounds.

T1 sequence (P30291 whole entry): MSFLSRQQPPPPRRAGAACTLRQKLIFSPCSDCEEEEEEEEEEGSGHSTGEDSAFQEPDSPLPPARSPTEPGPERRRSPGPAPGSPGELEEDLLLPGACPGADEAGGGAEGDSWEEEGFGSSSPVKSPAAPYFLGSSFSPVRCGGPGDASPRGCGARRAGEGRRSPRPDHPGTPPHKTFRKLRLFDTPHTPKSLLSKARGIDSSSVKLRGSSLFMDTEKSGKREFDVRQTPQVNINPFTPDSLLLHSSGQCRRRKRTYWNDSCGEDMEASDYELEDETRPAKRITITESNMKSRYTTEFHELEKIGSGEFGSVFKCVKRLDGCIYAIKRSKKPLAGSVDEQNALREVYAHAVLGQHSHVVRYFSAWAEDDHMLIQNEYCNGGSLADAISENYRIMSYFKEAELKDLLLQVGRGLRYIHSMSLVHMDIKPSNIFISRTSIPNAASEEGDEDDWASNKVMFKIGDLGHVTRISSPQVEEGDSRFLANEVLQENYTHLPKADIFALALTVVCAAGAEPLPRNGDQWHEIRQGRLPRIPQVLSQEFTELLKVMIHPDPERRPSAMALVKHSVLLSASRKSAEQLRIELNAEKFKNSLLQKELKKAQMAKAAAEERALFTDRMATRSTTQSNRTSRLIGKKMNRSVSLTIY

Question: `CN(C)C1Cc2ccc(Nc3ncc4c(=O)n(-c5c(Cl)cccc5Cl)cc(CF)c4n3)cc2C1` (stereo not drawn) [Example 112, 6-(2,6-dichlorophenyl)-2-{[2-(dimethylamino)-2,3-dihydro-1H-inden-5-yl]amino}-8-(fluoromethyl)pyrido[4,3-d]pyrimidin-5(6H)-one] was tested. Which Ki did it give?
Answer: 0.4 nM

Question: `Cc1cn(-c2c(Cl)cccc2Cl)c(=O)c2cnc(Nc3ccc4c(c3)CN(CCN(C)C)C4)nc12` [Example 141, 6-(2,6-dichlorophenyl)-2-({2-[2-(dimethylamino)ethyl]-2,3-dihydro-1H-isoindol-5-yl}amino)-8-methylpyrido[4,3-d]pyrimidin-5(6H)-one] was tested. Which Ki did it give?
Answer: 1 nM

Question: `Cc1n[nH]c(C)c1-n1cc(C)c2nc(Nc3ccc4c(c3)CNCC4)ncc2c1=O` [Example 123, 6-(3,5-dimethyl-1H-pyrazol-4-yl)-8-methyl-2-(1,2,3,4-tetrahydroisoquinolin-7-ylamino)pyrido[4,3-d]pyrimidin-5(6H)-one] was tested. Which Ki did it give?
Answer: 1.3 nM

Question: How did the Ki turn out when `CN(C)C1CCN(c2ccc(Nc3ncc4c(=O)n(-c5c(Cl)cccc5Cl)cc(C(F)F)c4n3)cc2)CC1` [Example 84, 6-(2,6-dichlorophenyl)-8-(difluoromethyl)-2-({4-[4-(dimethylamino)piperidin-1-yl]phenyl}amino)pyrido[4,3-d]pyrimidin-5(6H)-one] was run?
Answer: 0.328 nM

Question: For `Cc1cn(-c2c(Cl)cccc2Cl)c(=O)c2cnc(Nc3ccc4c(c3)CNCC4(C)C)nc12` [Example 77, 6-(2,6-dichlorophenyl)-2-[(4,4-dimethyl-1,2,3,4-tetrahydroisoquinolin-7-yl)amino]-8-methylpyrido[4,3-d]pyrimidin-5(6H)-one], which Ki is on record?
Answer: 0.3 nM

Question: How did the Ki turn out when `O=c1c2cnc(Nc3ccc4c(c3)CCNC4)nc2c(-c2ncc[nH]2)cn1-c1c(Cl)cccc1Cl` [Example 81, 6-(2,6-dichlorophenyl)-8-(1H-imidazol-2-yl)-2-(1,2,3,4-tetrahydroisoquinolin-6-ylamino)pyrido[4,3-d]pyrimidin-5(6H)-one] was run?
Answer: 0.4 nM

Question: Which Ki does the source give for `CN1Cc2cc(Nc3ncc4c(=O)n(-c5c(Cl)cccc5Cl)cc(CO)c4n3)ccc2C2(CC2)C1` [Example 53, 6-(2,6-dichlorophenyl)-8-(hydroxymethyl)-2-[(2′-methyl-2′,3′-dihydro-1′H-spiro[cyclopropane-1,4′-isoquinolin]-7′-yl)amino]pyrido[4,3-d]pyrimidin-5(6H)-one] here?
Answer: 0.3 nM

Question: With `Cc1cn(-c2c(Cl)cccc2Cl)c(=O)c2cnc(Nc3ccc(N[C@H]4CC[C@@H](N(C)C)CC4)cc3)nc12` [Example 133, 6-(2,6-dichlorophenyl)-2-[(4-{[cis-4-(dimethylamino)cyclohexyl]amino}phenyl)amino]-8-methylpyrido[4,3-d]pyrimidin-5(6H)-one] as the molecule, how does the Ki read?
Answer: 0.5 nM

Question: With `O=c1c2cnc(Nc3ccc4c(c3)CNCC4)nc2c(C(F)F)cn1-c1c(Cl)cccc1Cl` [Example 87, 6-(2,6-dichlorophenyl)-8-(difluoromethyl)-2-(1,2,3,4-tetrahydroisoquinolin-7-ylamino)pyrido[4,3-d]pyrimidin-5(6H)-one] as the molecule, how does the Ki read?
Answer: 0.254 nM

Question: How did the Ki turn out when `CNc1ncc2c(=O)n(-c3c(Cl)cccc3Cl)cc(C)c2n1` [Example 65, 6-(2,6-dichlorophenyl)-8-methyl-2-(methylamino)pyrido[4,3-d]pyrimidin-5(6H)-one] was run?
Answer: 127 nM

Question: How did the Ki turn out when `Cc1cn(-c2ccccc2Cl)c(=O)c2cnc(Nc3ccc4c(c3)CNCC4)nc12` [Example 98, 6-(2-chlorophenyl)-8-methyl-2-(1,2,3,4-tetrahydroisoquinolin-7-ylamino)pyrido[4,3-d]pyrimidin-5(6H)-one] was run?
Answer: 0.5 nM

Question: How did the Ki turn out when `Cc1cn(-c2c(Cl)cccc2Cl)c(=O)c2cnc(Nc3ccc4c(c3)CNC4(C)C)nc12` [Example 121, 6-(2,6-dichlorophenyl)-2-[(1,1-dimethyl-2,3-dihydro-1H-isoindol-5-yl)amino]-8-methylpyrido[4,3-d]pyrimidin-5(6H)-one] was run?
Answer: 0.1 nM

Question: Which Ki does the source give for `Cc1cn(-c2c(Cl)cccc2Cl)c(=O)c2cnc(Nc3ccc(N4CCN(CCCN(C)C)CC4)cc3)nc12` [Example 131, 6-(2,6-dichlorophenyl)-2-[(4-{4-[3-(dimethylamino)propyl]piperazin-1-yl}phenyl)amino]-8-methylpyrido[4,3-d]pyrimidin-5(6H)-one] here?
Answer: 0.2 nM

Question: `CN1Cc2cc(Nc3ncc4c(=O)n(-c5c(Cl)cccc5Cl)cc(C(F)F)c4n3)ccc2C2(CC2)C1` [Example 94, 6-(2,6-dichlorophenyl)-8-(difluoromethyl)-2-[(2′-methyl-2′,3′-dihydro-1′H-spiro[cyclopropane-1,4′-isoquinolin]-7′-yl)amino]pyrido[4,3-d]pyrimidin-5(6H)-one] was tested. Which Ki did it give?
Answer: 0.568 nM

Question: Which Ki does the source give for `Cc1cn(-c2c(Cl)cccc2Cl)c(=O)c2cnc(Nc3ccc(N[C@H]4CC[C@H](N(C)C)CC4)cc3)nc12` [Example 132, 6-(2,6-dichlorophenyl)-2-[(4-{[trans-4-(dimethylamino)cyclohexyl]amino}phenyl)amino]-8-methylpyrido[4,3-d]pyrimidin-5(6H)-one] here?
Answer: 0.4 nM

Question: Which Ki does the source give for `Cc1cn(-c2c(Cl)cccc2Cl)c(=O)c2nnc(Nc3ccc4c(c3)CNCC4)nc12` [Example 134, 7-(2,6-dichlorophenyl)-5-methyl-3-(1,2,3,4-tetrahydroisoquinolin-7-ylamino)pyrido[4,3-e][1,2,4]triazin-8(7H)-one] here?
Answer: 6.5 nM

Question: For `Cc1cn(-c2ccccc2-c2cnco2)c(=O)c2cnc(Nc3ccc(N4CCC(N(C)C)CC4)cc3)nc12` [Example 106, 2-({4-[4-(dimethylamino)piperidin-1-yl]phenyl}amino)-8-methyl-6-[2-(1,3-oxazol-5-yl)phenyl]pyrido[4,3-d]pyrimidin-5(6H)-one], which Ki is on record?
Answer: 115 nM

Question: With `Cc1cn(-c2c(Cl)cccc2Cl)c(=O)c2cnc(Nc3ccc4c(c3)CN(C)C4(C)C)nc12` [Example 115, 6-(2,6-dichlorophenyl)-8-methyl-2-[(1,1,2-trimethyl-2,3-dihydro-1H-isoindol-5-yl)amino]pyrido[4,3-d]pyrimidin-5(6H)-one] as the molecule, how does the Ki read?
Answer: 0.2 nM

Question: For `Cc1cccc(F)c1-n1cc(C)c2nc(Nc3ccc(N4CCC(N(C)C)CC4)cc3)ncc2c1=O` [Example 104, 2-({4-[4-(dimethylamino)piperidin-1-yl]phenyl}amino)-6-(2-fluoro-6-methylphenyl)-8-methylpyrido[4,3-d]pyrimidin-5(6H)-one], which Ki is on record?
Answer: 0.9 nM

Question: How did the Ki turn out when `CN1CCC(c2ccc(Nc3ncc4c(=O)n(-c5c(Cl)cccc5Cl)cc(C(F)F)c4n3)cc2)CC1` [Example 82, 6-(2,6-dichlorophenyl)-8-(difluoromethyl)-2-{[4-(1-methylpiperidin-4-yl)phenyl]amino}pyrido[4,3-d]pyrimidin-5 (6H)-one] was run?
Answer: 0.1 nM

Question: With “6-(2,6-dichlorophenyl)-8-methyl-2-(1,2,3,4-tetrahydroisoquinolin-6-ylamino)pyrido[4,3-d]pyrimidin-5(6H)-one [Example 76]” as the molecule, how does the Ki read?
Answer: 0.5 nM

Question: Which Ki does the source give for `CN(C)C1Cc2ccc(Nc3ncc4c(=O)n(-c5c(Cl)cccc5Cl)cc(CO)c4n3)cc2C1` (stereo not drawn) [Example 54, 6-(2,6-dichlorophenyl)-2-{[2-(dimethylamino)-2,3-dihydro-1H-inden-5-yl]amino}-8-(hydroxymethyl)pyrido[4,3-d]pyrimidin-5(6H)-one] here?
Answer: 0.4 nM

Question: How did the Ki turn out when `CN1Cc2cc(Nc3ncc4c(=O)n(-c5c(Cl)cccc5Cl)cc(CF)c4n3)ccc2C2(CC2)C1` [Example 113, 6-(2,6-dichlorophenyl)-8-(fluoromethyl)-2-[(2′-methyl-2′,3′-dihydro-1′H-spiro[cyclopropane-1,4′-isoquinolin]-7′-yl)amino]pyrido[4,3-d]pyrimidin-5 (6H)-one] was run?
Answer: 0.4 nM

Question: `Cc1cn(-c2c(Cl)cccc2Cl)c(=O)c2cnc(Nc3ccc(NC4CCN(C)CC4)cc3)nc12` [Example 116, 6-(2,6-dichlorophenyl)-8-methyl-2-({4-[(1-methylpiperidin-4-yl)amino]phenyl}amino)pyrido[4,3-d]pyrimidin-5 (6H)-one] was tested. Which Ki did it give?
Answer: 0.1 nM

Question: Which Ki does the source give for `O=c1c2cnc(Nc3ccc4c(c3)CC(N3CCCC3)C4)nc2c(C(F)F)cn1-c1c(Cl)cccc1Cl` (stereo not drawn) [Example 95, 6-(2,6-dichlorophenyl)-8-(difluoromethyl)-2-{[2-(pyrrolidin-1-yl)-2,3-dihydro-1H-inden-5-yl]amino}pyrido[4,3-d]pyrimidin-5(6H)-one] here?
Answer: 0.38 nM

Question: Which Ki does the source give for `C=Cc1cn(-c2c(Cl)cccc2Cl)c(=O)c2cnc(Nc3ccc(N4CC5CNCC5C4)cc3)nc12` (stereo not drawn) [Example 52, 6-(2,6-dichlorophenyl)-8-ethenyl-2-{[4-(hexahydropyrrolo[3,4-c]pyrrol-2(1H)-yl)phenyl]amino}pyrido[4,3-d]pyrimidin-5(6H)-one] here?
Answer: 1.8 nM

Question: `C=Cc1cn(-c2c(Cl)cccc2Cl)c(=O)c2cnc(Nc3ccc4c(c3)CNCC4(C)C)nc12` [Example 56, 6-(2,6-dichlorophenyl)-2-[(4,4-dimethyl-1,2,3,4-tetrahydroisoquinolin-7-yl)amino]-8-ethenylpyrido[4,3-d]pyrimidin-5(6H)-one] was tested. Which Ki did it give?
Answer: 0.5 nM

Question: How did the Ki turn out when `Cc1cn(-c2c(Cl)cccc2Cl)c(=O)c2cnc(Nc3ccc(S(=O)(=O)CCN(C)C)cc3)nc12` [Example 96, 6-(2,6-dichlorophenyl)-2-[(4-{[2-(dimethylamino)ethyl]sulfonyl}phenyl)amino]-8-methylpyrido[4,3-d]pyrimidin-5(6H)-one] was run?
Answer: 1.8 nM

Question: `O=c1c2cnc(Nc3ccc4c(c3)CCNC4)nc2c(CF)cn1-c1c(Cl)cccc1Cl` [Example 110, 6-(2,6-dichlorophenyl)-8-(fluoromethyl)-2-(1,2,3,4-tetrahydroisoquinolin-6-ylamino)pyrido[4,3-d]pyrimidin-5(6H)-one] was tested. Which Ki did it give?
Answer: 0.4 nM

Question: `Cc1cn(-c2c(Cl)cccc2Cl)c(=O)c2cnc(Nc3ccc4c(c3)CN(C3CCN(C)CC3)C4)nc12` [Example 137, 6-(2,6-dichlorophenyl)-8-methyl-2-{[2-(1-methylpiperidin-4-yl)-2,3-dihydro-1H-isoindol-5-yl]amino}pyrido[4,3-d]pyrimidin-5(6H)-one] was tested. Which Ki did it give?
Answer: 0.4 nM
